Test results published in paper PMC3119473 (PLoS ONE, 2011).
“Also recorded” adds a separate entry of the source. Each block holds one molecule with its values, some of them ahead of it. Square brackets hold non-standard residues; d marks the D form. Ends that are not written are not given here. fluorescein = fluorescein, N-terminal label; Lys(Me3) = C[N+](C)(C)CCCC[C@H](N)C(=O)O; Lys(Me2) = CN(C)CCCC[C@H](N)C(=O)O

Key:
[1] = biological target: T1, PWWP domain of human BRPF2 (residues 925–1049) (Homo sapiens, UniProt O95696); test: Fluorescence polarization binding of histone peptides to BRPF2 PWWP domain; conditions: N-terminally fluorescein-labeled peptide 40 nM, PWWP domain titrated, 20 mM PIPES pH 6.5, 50 mM NaCl, 0.01% Tween-20, Very weak = binding too weak to be fitted reliably
T1 construct: BRPF2 (residues 925–1049); His-tag (cleaved yes); made in house; host or cells: Escherichia coli BL21 (DE3)-V2R-pRARE2
T1 sequence (O95696 925-1049): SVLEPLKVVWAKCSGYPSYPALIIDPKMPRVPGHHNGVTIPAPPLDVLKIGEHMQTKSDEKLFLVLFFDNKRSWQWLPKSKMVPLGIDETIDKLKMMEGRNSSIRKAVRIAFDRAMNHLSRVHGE
Experimental: (§1) DNA fragment encoding the PWWP domain of human BRPF1 (residues 1085–1213), BRPF2 (residues 925–1049), BRPF3 (residues 1056–1195), HDGF2 (residues 1–93), DNMT3A (residues 278–427), DNMT3B (residues 206–355), MUM1 (residues 406–539) WHSC1 (residues 208–368) and WHSC1L1 (residues 247–402) were amplified by PCR and sub-cloned into pET28-MHL vector (Genbank accession number: EF456735) and transformed into Escherichia coli BL21 (DE3)-V2R-pRARE2. The cells were grown in Terrific Broth and the protein was over-expressed by addition of 1 mM isopropyl-1-thio-D-galactopyranoside (IPTG) and incubated overnight at 15°C. Harvested cells were resuspended in 50 mM HEPES, pH 7.4, supplemented with 500 mM NaCl, 2 mM β-mercaptoethanol, 5% glycerol, 0.1% CHAPS. The cells were lysed by passing through a microfluidizer (Microfluidics Corporation) at 20,000 psi. After clarification of the crude extract by high-speed centrifugation, the lysate was loaded onto a 5 ml HiTrap chelating column (GE Healthcare), charged with Ni^2+. The column was washed with 10 column volumes of 20 mM HEPES buffer, pH 7.4, containing 500 mM NaCl, 50 mM imidazole and 5% glycerol, the protein was eluted with 20 mM HEPES buffer, pH 7.4, 500 mM NaCl, 250 mM imidazole, 5% glycerol. The protein was dialyzed against buffer containing 20 mM HEPES, pH 7.4, 500 mM NaCl and 5% glyceral. […]

[2] = biological target: T2, N-terminal PWWP domain of human WHSC1L1 (residues 247–402) (Homo sapiens, UniProt Q9BZ95); test: Fluorescence polarization binding of histone peptides to WHSC1L1 N-terminal PWWP domain; conditions: N-terminal PWWP domain only, N-terminally fluorescein-labeled peptide 40 nM, PWWP domain titrated, 20 mM PIPES pH 6.5, 50 mM NaCl, 0.01% Tween-20, Very weak = binding too weak to be fitted reliably
T2 construct: WHSC1L1 (residues 247–402); His-tag (cleaved yes); made in house; host or cells: Escherichia coli BL21 (DE3)-V2R-pRARE2
T2 sequence (Q9BZ95 247-402): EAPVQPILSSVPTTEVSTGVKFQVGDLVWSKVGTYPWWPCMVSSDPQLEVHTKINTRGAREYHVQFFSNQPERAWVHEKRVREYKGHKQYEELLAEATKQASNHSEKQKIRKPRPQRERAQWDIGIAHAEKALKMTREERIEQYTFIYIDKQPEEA
Experimental: as §1, with “glycerol.” for “glycerol. The protein was dialyzed against buffer containing 20 mM HEPES, pH 7.4, 500 mM NaCl and 5% glyceral.”
Fluorescence polarization assays were performed in 384-well plates, using the Synergy 2 microplate reader from BioTek as described in [43]. […]

[3] = biological target: T3, PWWP domain of human HDGF2 (residues 1–93) (Homo sapiens, UniProt Q7Z4V5); test: Fluorescence polarization binding of histone peptides to HDGF2 PWWP domain; conditions: N-terminally fluorescein-labeled peptide 40 nM, PWWP domain titrated, 20 mM PIPES pH 6.5, 50 mM NaCl, 0.01% Tween-20, Very weak = binding too weak to be fitted reliably
T3 construct: HDGF2 (residues 1–93); His-tag (cleaved yes); made in house; host or cells: Escherichia coli BL21 (DE3)-V2R-pRARE2
Experimental: DNA fragment encoding the PWWP domain of human BRPF1 (residues 1085–1213), BRPF2 (residues 925–1049), BRPF3 (residues 1056–1195), HDGF2 (residues 1–93), DNMT3A (residues 278–427), DNMT3B (residues 206–355), MUM1 (residues 406–539) WHSC1 (residues 208–368) and WHSC1L1 (residues 247–402) were amplified by PCR and sub-cloned into pET28-MHL vector (Genbank accession number: EF456735) and transformed into Escherichia coli BL21 (DE3)-V2R-pRARE2. The cells were grown in Terrific Broth and the protein was over-expressed by addition of 1 mM isopropyl-1-thio-D-galactopyranoside (IPTG) and incubated overnight at 15°C. Harvested cells were resuspended in 50 mM HEPES, pH 7.4, supplemented with 500 mM NaCl, 2 mM β-mercaptoethanol, 5% glycerol, 0.1% CHAPS. The cells were lysed by passing through a microfluidizer (Microfluidics Corporation) at 20,000 psi. After clarification of the crude extract by high-speed centrifugation, the lysate was loaded onto a 5 ml HiTrap chelating column (GE Healthcare), charged with Ni^2+. The column was washed with 10 column volumes of 20 mM HEPES buffer, pH 7.4, containing 500 mM NaCl, 50 mM imidazole and 5% glycerol, the protein was eluted with 20 mM HEPES buffer, pH 7.4, 500 mM NaCl, 250 mM imidazole, 5% glycerol. The protein was dialyzed against buffer containing 20 mM HEPES, pH 7.4, 500 mM NaCl and 5% glyceral. TEV protease was added to combined fractions containing target proteins to remove the His-tag. All the proteins except DNMT3A were further purified to homogeneity by ion-exchange chromatography on Source 30S column (10×10) (GE Healthcare), equilibrated with 20 mM PIPES buffer, pH 6.5, and eluted with linear gradient of NaCl up to 500 mM concentration (20CV). For DNMT3A, Source 30Q column was used for ion exchange chromatography. The ^15N-labeled proteins for NMR titration were purified in the same protocols as native ones except that bacteria were grew in M9 minimal medium containing 1 g/L ^15(NH4)2SO4 as the sole nitrogen source. The labeled proteins were concentrated to 0.15–0.3 mM for NMR titration.
Fluorescence polarization assays were performed in 384-well plates, using the Synergy 2 microplate reader from BioTek as described in [43]. All the peptides were synthesized and purified by Tufts University Core Services (Boston, MA, U.S.A.), with the N-terminus labeled with fluorescein. Binding assays were performed in a 10 µl volume at a constant labeled peptide concentration (40 nM), by titrating the PWWP domains (at concentrations ranging from low to high micromolar) into 20 mM PIPES buffer (pH 6.5), containing 50 mM NaCl, 0.01% Tween-20. The data points were fitted to ligand binding function using Sigma Plot software to determine the K d values.

[4] = biological target: T4, PWWP domain of human BRPF1 (residues 1085–1213) (Homo sapiens, UniProt P55201); test: Fluorescence polarization binding of histone peptides to BRPF1 PWWP domain; conditions: N-terminally fluorescein-labeled peptide 40 nM, PWWP domain titrated, 20 mM PIPES pH 6.5, 50 mM NaCl, 0.01% Tween-20, Very weak = binding too weak to be fitted reliably
T4 construct: PWWP domain of human BRPF1 (residues 1085–1213); His-tag (cleaved yes); made in house; host or cells: Escherichia coli BL21 (DE3)-V2R-pRARE2
T4 sequence (P55201 1085-1213): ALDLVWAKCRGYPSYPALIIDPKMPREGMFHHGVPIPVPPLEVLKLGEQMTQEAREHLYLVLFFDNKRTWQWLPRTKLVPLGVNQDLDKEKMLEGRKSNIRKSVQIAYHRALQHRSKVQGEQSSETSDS
Experimental: as §1

[5] = biological target: T5, PWWP domain of human MUM1 (melanoma associated antigen (mutated) 1), residues 406-539 (human, UniProt Q2TAK8 406-539); test: fluorescence polarisation; 384-well plates, 10 µl; N-terminal fluorescein peptide constant at 40 nM, PWWP domain titrated (low to high micromolar); 20 mM PIPES pH 6.5, 50 mM NaCl, 0.01% Tween-20; conditions: both partners purified
T5 construct: PWWP domain of human MUM1, residues 406-539; Cloned into pET28-MHL (vector GenBank EF456735); source: E. coli BL21 (DE3)-V2R-pRARE2, purified (Ni2+ chelating column, TEV cleavage, Source 30S ion exchange)

[6] = biological target: T6, PWWP domain of human HDGF2 (Hepatoma-derived growth factor 2), residues 1-93 (human, UniProt Q7Z4V5 1-93); test: as above; conditions: both partners purified
T6 construct: PWWP domain of human HDGF2, residues 1-93; Cloned into pET28-MHL (vector GenBank EF456735); also called HGDF2; source: E. coli BL21 (DE3)-V2R-pRARE2, purified (Ni2+ chelating column, TEV cleavage, Source 30S ion exchange)
T6 sequence (Q7Z4V5 1-93): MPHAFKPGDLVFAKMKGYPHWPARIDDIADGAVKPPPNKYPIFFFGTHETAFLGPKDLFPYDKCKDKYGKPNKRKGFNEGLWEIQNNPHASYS

T3 sequence (Q7Z4V5 1-93): as above
T5 sequence (Q2TAK8 406-539, stated change not applied): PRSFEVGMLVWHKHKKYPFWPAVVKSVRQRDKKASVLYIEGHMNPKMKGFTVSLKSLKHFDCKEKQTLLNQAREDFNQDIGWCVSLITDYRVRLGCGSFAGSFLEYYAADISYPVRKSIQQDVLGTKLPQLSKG

Molecule: CC(C)[C@H](NC(=O)CNC(=O)CNC(=O)[C@@H](NC(=O)[C@H](C)NC(=O)[C@@H]1CCCN1)[C@@H](C)O)C(=O)N[C@@H](CCCCN(C)C)C(=O)N[C@@H](CCCCN)C(=O)N1CCC[C@H]1C(=O)N[C@@H](Cc1c[nH]cn1)C(=O)N[C@@H](CCCNC(=N)N)C(=O)N[C@@H](Cc1ccc(O)cc1)C(=O)O [Peptide H3K36me2]
BRPF2 Kd(mM) [1]: Very weak
WHSC1L1_N Kd (mM) [2]: Very weak

Molecule: CC[C@H](C)[C@H](NC(=O)[C@@H](N)CCC(=O)O)C(=O)N[C@@H](C)C(=O)N[C@@H](CCC(N)=O)C(=O)N[C@@H](CC(=O)O)C(=O)N[C@@H](Cc1ccccc1)C(=O)N[C@@H](CCCC[N+](C)(C)C)C(=O)N[C@H](C(=O)N[C@@H](CC(=O)O)C(=O)N[C@@H](CC(C)C)C(=O)N[C@@H](CCCNC(=N)N)C(=O)N[C@@H](Cc1ccc(O)cc1)C(=O)O)[C@@H](C)O [Peptide H3K79me3]
HDGF2 Kd(mM) [3]: weakly; also recorded: very weak binding affinity

Molecule: AKRHRK(me)3VLRDN [Peptide H4K20me3, histone H4 peptide trimethylated at K20; N-terminus fluorescein-labeled in FP assay]
HDGF2 Kd(mM) [3]: weakly; also recorded: Very weak
BRPF1 Kd(mM) [4]: Very weak

B2: H3K36me3 peptide PATGGVK(me)3KPHRY, N-terminal fluorescein (peptide)
peptide: fluorescein-PATGGV[Lys(Me3)]KPHRY
notes: histone H3, stretch around K36; source: synthetic peptide (Tufts University Core Services)
Kd [5]: 100 ± 70 µM

Further lines, results first:

HDGF2 Kd(mM) [3]: weakly; also recorded: Very weak
WHSC1L1_N Kd (mM) [2]: Very weak
Molecule: CC(C)[C@H](NC(=O)CNC(=O)CNC(=O)[C@@H](NC(=O)[C@H](C)NC(=O)[C@@H]1CCCN1)[C@@H](C)O)C(=O)N[C@@H](CCCC[N+](C)(C)C)C(=O)N[C@@H](CCCCN)C(=O)N1CCC[C@H]1C(=O)N[C@@H](Cc1c[nH]cn1)C(=O)N[C@@H](CCCNC(=N)N)C(=O)N[C@@H](Cc1ccc(O)cc1)C(=O)O [Peptide H3K36me3]

HDGF2 Kd(mM) [3]: Very weak
Molecule: CC[C@H](C)[C@H](NC(=O)[C@@H](N)CCC(=O)O)C(=O)N[C@@H](C)C(=O)N[C@@H](CCC(N)=O)C(=O)N[C@@H](CC(=O)O)C(=O)N[C@@H](Cc1ccccc1)C(=O)N[C@@H](CCCCN(C)C)C(=O)N[C@H](C(=O)N[C@@H](CC(=O)O)C(=O)N[C@@H](CC(C)C)C(=O)N[C@@H](CCCNC(=N)N)C(=O)N[C@@H](Cc1ccc(O)cc1)C(=O)O)[C@@H](C)O [Peptide H3K79me2]

HDGF2 Kd(mM) [3]: Very weak
BRPF1 Kd(mM) [4]: Very weak
Molecule: AKRHRK(me)2VLRDN [Peptide H4K20me2, histone H4 peptide dimethylated at K20; N-terminus fluorescein-labeled in FP assay]

Kd [5]: 400 ± 100 µM
Kd [6]: 1000 ± 200 µM
B1: H3K36me2 peptide PATGGVK(me)2KPHRY, N-terminal fluorescein (peptide)
peptide: fluorescein-PATGGV[Lys(Me2)]KPHRY
notes: as for B2
